According to article PMC4603778, “Encoded Library Synthesis Using Chemical Ligation and the Discovery of sEH Inhibitors from a 334-Million Member Library” (Scientific Reports, 2015):

Biological target: T1, soluble epoxide hydrolase (sEH) (Homo sapiens, UniProt P34913)
T1 construct: gene EPHX2; His-tagged sEH protein (used in the selection)
T1 sequence (P34913 1-555): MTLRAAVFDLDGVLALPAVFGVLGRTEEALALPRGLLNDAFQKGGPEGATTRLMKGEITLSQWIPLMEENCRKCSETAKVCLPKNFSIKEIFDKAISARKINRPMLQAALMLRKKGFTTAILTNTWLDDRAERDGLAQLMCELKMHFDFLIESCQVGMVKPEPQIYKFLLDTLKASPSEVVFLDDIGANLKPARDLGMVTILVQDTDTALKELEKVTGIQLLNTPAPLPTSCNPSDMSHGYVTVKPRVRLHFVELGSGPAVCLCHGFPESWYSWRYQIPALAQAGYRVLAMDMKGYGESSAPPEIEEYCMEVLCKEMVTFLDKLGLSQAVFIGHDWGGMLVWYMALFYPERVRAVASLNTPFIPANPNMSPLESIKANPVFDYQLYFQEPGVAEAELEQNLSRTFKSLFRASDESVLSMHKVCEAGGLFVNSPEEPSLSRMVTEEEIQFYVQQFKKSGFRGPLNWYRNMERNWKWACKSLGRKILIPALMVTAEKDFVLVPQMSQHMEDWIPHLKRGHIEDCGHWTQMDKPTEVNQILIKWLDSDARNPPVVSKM
Assay: biochemical sEH inhibition assay of off-DNA compound (methyl in place of DNA linker); building-block combination enriched in affinity selection

For `CN(CCn1cccn1)C(=O)c1ccc(-c2cccc(C(=O)NC3CCCCC3)c2)nc1` [compound 12], the IC50 was 2 nM.
